# Laboratory results taken from patent US8871753B2, “Macrocyclic compounds and their use as kinase inhibitors” (Incyte Corporation, priority 2008, dated 2014).
# Structures can show the parent of a compound that is named as a salt. Where two headings read alike, the source gives them in different places.
# What was measured:
# Type in all cases: biochemical
# [1] = biological target: T1, Recombinant Human Anaplastic Lymphoma Kinase (Homo sapiens, UniProt Q9UM73); experiment: ALK HTRF kinase assay
# T1 construct: purchased Invitrogen, Carlsbad, Calif
# T1 sequence (Q9UM73 19-1620): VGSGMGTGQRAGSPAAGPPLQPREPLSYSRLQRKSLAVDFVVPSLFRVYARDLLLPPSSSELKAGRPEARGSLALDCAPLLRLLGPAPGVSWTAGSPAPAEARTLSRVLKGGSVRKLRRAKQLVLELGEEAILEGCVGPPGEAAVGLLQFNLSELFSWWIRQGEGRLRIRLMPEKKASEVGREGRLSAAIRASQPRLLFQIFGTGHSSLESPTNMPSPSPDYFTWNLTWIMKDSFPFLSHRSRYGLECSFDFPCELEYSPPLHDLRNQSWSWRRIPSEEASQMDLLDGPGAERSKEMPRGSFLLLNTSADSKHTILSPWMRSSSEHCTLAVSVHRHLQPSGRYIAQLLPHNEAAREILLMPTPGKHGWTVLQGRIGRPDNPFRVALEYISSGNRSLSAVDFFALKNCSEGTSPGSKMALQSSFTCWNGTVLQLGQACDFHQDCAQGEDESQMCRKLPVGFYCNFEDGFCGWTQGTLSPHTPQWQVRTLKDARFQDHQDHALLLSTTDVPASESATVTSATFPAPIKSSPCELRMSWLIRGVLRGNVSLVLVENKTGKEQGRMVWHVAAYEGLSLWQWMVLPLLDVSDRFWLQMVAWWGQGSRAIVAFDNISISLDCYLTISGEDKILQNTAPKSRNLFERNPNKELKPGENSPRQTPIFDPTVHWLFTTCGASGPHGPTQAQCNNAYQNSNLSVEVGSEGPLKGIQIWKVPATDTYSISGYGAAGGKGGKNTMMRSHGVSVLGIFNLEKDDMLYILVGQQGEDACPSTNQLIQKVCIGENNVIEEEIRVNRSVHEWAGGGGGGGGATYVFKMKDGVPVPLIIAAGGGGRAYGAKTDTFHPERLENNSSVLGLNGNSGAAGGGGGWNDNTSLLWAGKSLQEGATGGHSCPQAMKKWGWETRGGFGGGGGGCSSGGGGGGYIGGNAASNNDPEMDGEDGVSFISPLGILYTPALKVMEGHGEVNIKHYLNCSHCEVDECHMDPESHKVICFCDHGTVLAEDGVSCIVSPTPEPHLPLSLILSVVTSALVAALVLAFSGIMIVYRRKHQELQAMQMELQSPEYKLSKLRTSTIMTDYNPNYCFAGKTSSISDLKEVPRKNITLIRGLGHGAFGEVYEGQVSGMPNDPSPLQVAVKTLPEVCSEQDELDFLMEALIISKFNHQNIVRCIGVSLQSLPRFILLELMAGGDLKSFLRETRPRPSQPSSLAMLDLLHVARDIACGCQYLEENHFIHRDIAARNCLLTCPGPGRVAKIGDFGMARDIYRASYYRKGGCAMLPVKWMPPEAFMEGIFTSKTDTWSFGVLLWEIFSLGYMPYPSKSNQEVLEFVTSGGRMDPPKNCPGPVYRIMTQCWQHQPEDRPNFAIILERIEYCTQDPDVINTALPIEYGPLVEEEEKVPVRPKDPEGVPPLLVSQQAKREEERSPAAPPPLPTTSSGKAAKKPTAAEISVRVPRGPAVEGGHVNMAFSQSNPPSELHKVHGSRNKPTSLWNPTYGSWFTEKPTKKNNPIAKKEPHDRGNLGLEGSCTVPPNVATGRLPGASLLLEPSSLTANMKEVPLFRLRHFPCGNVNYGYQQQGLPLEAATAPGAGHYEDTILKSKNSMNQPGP
# Summary of the method: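 TR-FRET read-out (Eu anti-pTyr antibody + streptavidin-APC) of biotin-peptide phosphorylation by recombinant human enzyme; IC50 by sigmoidal fit with top/bottom baselines and Hill slope.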
# [2] = biological target: T2, human JAK3 (a.a. 781-1124) (Homo sapiens, UniProt P52333); experiment: In vitro JAK kinase assay (HTRF, phosphorylation of a biotinylated peptide), JAK3
# T2 construct: JAK3 (a.a. 781-1124); His tag (N); made in house; host or cells: insect cells (baculovirus)
# T2 sequence (P52333 781-1124): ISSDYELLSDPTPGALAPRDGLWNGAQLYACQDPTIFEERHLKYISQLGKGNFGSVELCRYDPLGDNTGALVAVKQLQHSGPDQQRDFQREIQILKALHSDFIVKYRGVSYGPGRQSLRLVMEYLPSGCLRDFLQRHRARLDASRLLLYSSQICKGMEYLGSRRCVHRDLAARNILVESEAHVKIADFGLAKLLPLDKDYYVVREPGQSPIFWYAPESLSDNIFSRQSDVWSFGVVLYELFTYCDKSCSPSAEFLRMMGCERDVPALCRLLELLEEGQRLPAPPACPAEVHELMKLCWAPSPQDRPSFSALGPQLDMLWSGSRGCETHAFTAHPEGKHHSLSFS
# Summary of the method: (§1)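 Kinase reactions ran at room temperature for 1 h with ATP matched per isoform (JAK1 90 μM, JAK2 30 μM, JAK3 3 μM). After an EDTA stop, the phosphorylated biotin-peptide was read by HTRF using Eu-Py20 and SA-APC after 40 min binding.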
# [3] = biological target: T3, human JAK2 (a.a. 828-1132) (Homo sapiens, UniProt O60674); experiment: In vitro JAK kinase assay (HTRF, phosphorylation of a biotinylated peptide), JAK2
# T3 construct: JAK2 (a.a. 828-1132); His tag (N); made in house; host or cells: insect cells (baculovirus)
# T3 sequence (O60674 828-1132): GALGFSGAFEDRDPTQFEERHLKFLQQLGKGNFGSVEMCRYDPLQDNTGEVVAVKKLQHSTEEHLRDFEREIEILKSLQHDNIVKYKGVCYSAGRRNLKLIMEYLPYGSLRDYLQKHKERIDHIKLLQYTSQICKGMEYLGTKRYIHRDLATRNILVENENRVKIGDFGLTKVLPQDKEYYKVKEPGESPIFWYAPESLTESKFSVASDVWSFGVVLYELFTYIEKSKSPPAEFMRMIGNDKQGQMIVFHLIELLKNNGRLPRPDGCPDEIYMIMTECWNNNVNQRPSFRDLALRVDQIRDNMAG
# Summary of the method: as §1
# [4] = biological target: T4, human JAK1 (a.a. 837-1142) (Homo sapiens, UniProt P23458); experiment: In vitro JAK kinase assay (HTRF, phosphorylation of a biotinylated peptide), JAK1; conditions: read-out: JAK1 IC50
# T4 construct: human JAK1 (a.a. 837-1142); His tag (N); made in house; host or cells: insect cells (baculovirus)
# T4 sequence (P23458 849-1154): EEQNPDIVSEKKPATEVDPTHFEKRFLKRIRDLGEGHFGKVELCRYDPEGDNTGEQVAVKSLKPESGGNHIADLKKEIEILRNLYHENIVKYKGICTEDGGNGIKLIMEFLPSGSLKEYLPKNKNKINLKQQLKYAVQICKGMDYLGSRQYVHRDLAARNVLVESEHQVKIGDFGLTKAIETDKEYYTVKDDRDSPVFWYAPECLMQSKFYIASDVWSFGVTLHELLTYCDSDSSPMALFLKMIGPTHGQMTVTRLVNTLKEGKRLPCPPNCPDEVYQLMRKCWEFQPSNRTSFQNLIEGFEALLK
# Summary of the method: as §1
# [5] = biological target: TYK2 (Homo sapiens, UniProt P29597); experiment: TYK2 kinase inhibition (Table A1)
# TYK2, sequence (P29597 whole entry): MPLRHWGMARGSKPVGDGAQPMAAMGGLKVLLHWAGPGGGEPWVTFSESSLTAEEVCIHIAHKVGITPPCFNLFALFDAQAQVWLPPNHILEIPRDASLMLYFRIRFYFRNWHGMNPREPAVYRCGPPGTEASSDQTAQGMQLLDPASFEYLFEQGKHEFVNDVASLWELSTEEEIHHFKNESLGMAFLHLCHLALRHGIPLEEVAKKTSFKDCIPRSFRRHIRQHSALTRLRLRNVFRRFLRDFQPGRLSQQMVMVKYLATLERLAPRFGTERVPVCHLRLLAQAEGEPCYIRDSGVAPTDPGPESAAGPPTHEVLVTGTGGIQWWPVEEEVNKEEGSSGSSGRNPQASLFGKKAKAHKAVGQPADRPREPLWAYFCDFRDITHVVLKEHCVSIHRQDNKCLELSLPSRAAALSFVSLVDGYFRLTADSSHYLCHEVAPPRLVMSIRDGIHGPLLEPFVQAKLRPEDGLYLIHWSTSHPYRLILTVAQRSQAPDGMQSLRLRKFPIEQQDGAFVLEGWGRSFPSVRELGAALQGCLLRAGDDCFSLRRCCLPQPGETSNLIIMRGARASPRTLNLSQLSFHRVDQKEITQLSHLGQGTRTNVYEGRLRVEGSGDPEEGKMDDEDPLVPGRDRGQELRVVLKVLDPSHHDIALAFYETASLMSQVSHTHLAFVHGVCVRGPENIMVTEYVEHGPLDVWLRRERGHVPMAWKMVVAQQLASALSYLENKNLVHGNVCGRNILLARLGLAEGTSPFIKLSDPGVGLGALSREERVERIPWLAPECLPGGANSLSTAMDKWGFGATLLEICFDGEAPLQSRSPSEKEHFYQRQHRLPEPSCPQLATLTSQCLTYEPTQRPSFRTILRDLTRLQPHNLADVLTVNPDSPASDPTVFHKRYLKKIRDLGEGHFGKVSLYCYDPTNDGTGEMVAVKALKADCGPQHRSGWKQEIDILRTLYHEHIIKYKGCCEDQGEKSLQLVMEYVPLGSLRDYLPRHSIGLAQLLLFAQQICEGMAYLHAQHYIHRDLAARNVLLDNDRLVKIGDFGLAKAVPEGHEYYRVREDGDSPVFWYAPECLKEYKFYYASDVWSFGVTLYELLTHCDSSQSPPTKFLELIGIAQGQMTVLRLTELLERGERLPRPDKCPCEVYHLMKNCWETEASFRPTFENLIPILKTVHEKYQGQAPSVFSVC
# [6] = compound at a concentration of 500 nM or 1 mM (not specified), cells shown as percentage
# [7] = compound at 500 nM or 1 mM, 90 μM ATP
# [8] = method AA1 (3 μM ATP) or AA2 (1000 μM ATP), not stated per value
# [9] = method AA1 (30 μM ATP) or AA2 (1000 μM ATP), not stated per value
# [10] = method AA1 (90 μM ATP) or AA2 (1000 μM ATP), not stated per value
smiles,measurement,setting,value
"Clc1cnc2nc1Nc1cccc(c1)SCCOc1cccc(c1)N2 [Example D11, 6-Chloro-17-oxa-14-thia-2,4,8,24-tetraazatetracyclo[16.3.1.1(3,7).1(9,13)]tetracosa-1(22),3(24),4,6,9(23),10,12,18,20-nonaene trifluoroacetate]",IC50,"[1]; Table D1, 90 μM ATP",480 nM
same,IC50,[2]; Table D1,24 nM
same,IC50,[3]; Table D1,5.4 nM
same,IC50,[4]; Table D1,3.4 nM
same,IC50,[5]; Table D1,9.9 nM
"CC(C)(C)OC(=O)N1CCN(Cc2ccc3cc2CCc2cccc(c2)Nc2ncc(Cl)c(n2)N3)CC1 [Example B221, tert-Butyl 4-{[6-chloro-2,4,8,22-tetraazatetracyclo[14.3.1.1(3,7).1(9,13)]docosa-1(20),3(22),4,6,9(21),10,12,16,18-nonaen-12-yl]methyl}piperazine-1-carboxylate bis(trifluoroacetate)]",ALK % of inhibition at a concentration of 500 nM or 1 mM,[1]; [6],8.1%
same,IC50,[2]; Table B1,59 nM
same,IC50,[3]; Table B1,19 nM
same,IC50,[4]; Table B1,12 nM
same,IC50,[5]; Table B1,43 nM
"CCc1ccc(NC(=O)Nc2ccc3cc2CCc2cccc(c2)Nc2ncc(Cl)c(n2)N3)cc1 [Example B98, N-[6-Chloro-2,4,8,22-tetraazatetracyclo[14.3.1.1(3,7).1(9,13)]docosa-1(20), 3(22),4,6,9(21),10,12,16,18-nonaen-12-yl]-N′-(4-ethylphenyl)urea trifluoroacetate]",ALK % of inhibition at a concentration of 500 nM or 1 mM,[1]; [6],41%
same,IC50,[2]; Table B1,91 nM
same,IC50,[3]; Table B1,26 nM
same,IC50,[4]; Table B1,13 nM
same,IC50,[5]; Table B1,38 nM
"O=S1(=O)NCc2cccc(c2)Nc2nc(ncc2Cl)Nc2cccc1c2 [Example C3, 6-Chloro-16-thia-2,4,8,15,23-pentaazatetracyclo[15.3.1.1(3,7).1(9,13)]tricosa-1(21),3(23),4,6,9(22),10,12,17,19-nonaene 16,16-dioxide]",IC50,[1],6600 nM
same,IC50,[2],115 nM
same,IC50,[3],37 nM
same,IC50,[4],81 nM
same,IC50,[5],91 nM
"O=C(Nc1ccc2cc1CCc1cccc(c1)Nc1ncc(Cl)c(n1)N2)c1cccnc1Cl [Example B70, 2-Chloro-N-[6-chloro-2,4,8,22-tetraazatetracyclo[14.3.1.1(3,7).1(9,13)]docosa-1(20),3(22),4,6,9(21),10,12,16,18-nonaen-12-yl]nicotinamide bis(trifluoroacetate)]",ALK % of inhibition at a concentration of 500 nM or 1 mM,[1]; [6],82%
same,IC50,[2]; Table B1,2.4 nM
same,IC50,[3]; Table B1,0.64 nM
same,IC50,[4]; Table B1,1.5 nM
same,IC50,[5]; Table B1,2.5 nM
"CC(=O)N1Cc2cccc(c2)Nc2nc(ncc2Cl)Nc2cccc1c2 [Example D71, 15-Acetyl-6-chloro-2,4,8,15,22-pentaazatetracyclo[14.3.1.1(3,7).1(9,13)]docosa-1(20),3(22),4,6,9(21),10,12,16,18-nonaene trifluoroacetate]",IC50,"[1]; Table D1, 90 μM ATP",> 1000 nM
same,IC50,[2]; Table D1,65 nM
same,IC50,[3]; Table D1,187 nM
same,IC50,[4]; Table D1,151 nM
same,IC50,[5]; Table D1,300 nM
"O=C(CC1CCN(S(=O)(=O)c2ccccc2Cl)CC1)Nc1ccc2cc1CCc1cncc(c1)Nc1ncc(Cl)c(n1)N2 [Example A223, N-[6-Chloro-2,4,8,18,22-pentaazatetracyclo[14.3.1.1(3,7).1(9,13)]docosa-1(20),3(22),4,6,9(21),10,12,16,18-nonaen-12-yl]-2-{1-[(2-chlorophenyl)sulfonyl]piperidin-4-yl}acetamide bis(trifluoroacetate)]",ALK % of inhibition at a concentration of 500 nM or 1 mM,[1]; [7],41%
same,IC50,[2]; [8],> 400 nM
same,IC50,[3]; [9],90 nM
same,IC50,[4]; [10],5 nM
same,IC50,[5],> 400 nM
"O=C(CCC1CCNCC1)Nc1ccc2cc1CCc1cccc(c1)Nc1ncc(Cl)c(n1)N2 [Example A116, N-[6-Chloro-2,4,8,22-tetraazatetracyclo[14.3.1.1(3,7).1(9,13)]docosa-1(20),3(22),4,6,9(21),10,12,16,18-nonaen-12-yl]-3piperidin-4-ylpropanamide bis(trifluoroacetate)]",ALK % of inhibition at a concentration of 500 nM or 1 mM,[1]; [7],27%
same,IC50,[2]; [8],44 nM
same,IC50,[3]; [9],20 nM
same,IC50,[4]; [10],14 nM
same,IC50,[5],33 nM
"CCC(C)C(=O)Nc1ccc2cc1CCc1cccc(c1)Nc1ncc(Cl)c(n1)N2 (stereo not drawn) [Example B61, N-[6-Chloro-2,4,8,22-tetraazatetracyclo[14.3.1.1(3,7).1(9,13)]docosa-1(20), 3(22),4,6,9(21),10,12,16,18-nonaen-12-yl]-2-methylbutanamide trifluoroacetate]",IC50,"[1]; Table B1, cells without percent sign",680 nM
same,IC50,[2]; Table B1,3 nM
same,IC50,[3]; Table B1,1.4 nM
same,IC50,[4]; Table B1,19 nM
same,IC50,[5]; Table B1,34 nM
